Values joined by “and” are separate entries in the source; they are usually repeats but may differ in a detail not shown here. Equal values may be shown once. Values belong to the compound of their own block, whether it stands above or below them.
Experiments:
KLHDC2^SBD [1] = target: T1, KLHDC2^SBD (Homo sapiens, UniProt Q9Y2U9); assay: TR-FRET assay, competition with di-Gly degron peptide binding to KLHDC2^SBD; parameters: KLHDC2^SBD (15-361) and its Avi-tagged counterpart were expressed in E. coli Rosetta2 cells; 6XHis-MBP (N, cleaved yes); made in house; host or cells: E. coli Rosetta2; conditions: for IC50: inhibition of KLHDC2^SBD binding to a di-Gly degron peptide, read-out: TR-FRET IC50
T1 sequence (Q9Y2U9 15-361): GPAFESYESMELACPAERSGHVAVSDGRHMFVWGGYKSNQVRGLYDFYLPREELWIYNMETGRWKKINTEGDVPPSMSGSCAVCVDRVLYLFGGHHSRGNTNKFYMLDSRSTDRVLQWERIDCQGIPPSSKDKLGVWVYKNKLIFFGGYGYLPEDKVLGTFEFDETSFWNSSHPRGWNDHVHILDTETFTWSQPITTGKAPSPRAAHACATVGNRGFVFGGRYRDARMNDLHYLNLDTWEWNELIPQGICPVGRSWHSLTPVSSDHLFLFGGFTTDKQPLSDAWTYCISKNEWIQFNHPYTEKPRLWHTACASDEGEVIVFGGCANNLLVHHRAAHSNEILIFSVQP
Method: TR-FRET assays were carried out in black 384-well microtiter plates at a final volume of 20 μL per well. An assay cocktail was prepared as a mixture of 50 nM Biotin-KLHDC2 SBD, 20 nM AlexaFluor488-RIC8B peptide, 2.5 nM Tb-Streptavidin (ThermoFisher) in assay buffer (25 mM HEPES, 100 mM NaCl, 0.1% Triton X-100, 0.5 mM DTT, pH 7.5). The assay cocktail was incubated for thirty-minutes at room temperature and 20 μl distributed to assay plates. Molecules were distributed to the plates at the indicated concentration and the assay mixture was incubated for 1 h at room temperature prior to measuring the TR-FRET signal with a PHERAstar FS plate reader (BMG Labtech) equipped with modules for excitation at 337 nm and emissions at 490 and 520 nm. The integration start was set to 100 µs and the integration time to 200 µs. The number of flashes was fixed at 100. The ratio of 520/490 was used as TR-FRET signal in calculations. Assay endpoints were normalized to 100% (buffer only) and used for curve fitting in Prism.

KLHDC2^SBD [2] = target: T1, KLHDC2^SBD; assay: Surface plasmon resonance binding to KLHDC2; parameters: KLHDC2^SBD (15-361) and its Avi-tagged counterpart were expressed in E. coli Rosetta2 cells; 6XHis-MBP (N, cleaved yes); made in house; host or cells: E. coli Rosetta2; conditions: for SPR Rmax / SPR dissociation constant kd: n=1; for Kd: read-out: SPR Kd; for SPR Response: FigS2d
Method: Surface plasmon resonance (SPR) was utilized to determine kinetic parameters and binding affinity of KLHDC2 substrates using a PioneerFE (Sartorius). Experiments were carried out in 20 mM Tris, 200 mM NaCl, 1 mM TCEP, 0.01% Brij35, and 1% DMSO at pH 7.4 as a running buffer with a 100 µL/min flow rate at 20 °C.
The 10xHis-KLHDC2 was immobilized onto a Ni-NTA-coated biosensor chip (HisCap). The chip surface was conditioned using 10 mM HCl, 50 mM NaOH, and 0.1% SDS (50 µL at 100 µL/min) twice, followed by a 100 mM Tris buffer wash (100 µL at 100 µL/min). The surface was then activated using an injection of 0.5 M EDTA (125 µL at 25 µL/min) followed by an injection of 5 mM NiCl2 (125 µL at 25 µL/min). […] Channel 2 was treated identically to channel 3 except for protein loading to be used as a reference channel. […] 100% of the loop was injected with a 300 s dissociation time. All samples were run in triplicate. Data was analyzed using Qdat software and fit to a simple 1-site model.
The SPR experiments were performed to determine the binding affinities (KD) of KLHDC2-SJ46411 and KLHDC2-SJ46418 complexes. All the experiments were performed using a Biacore 1S+ instrument. […] The running buffer consisted of 20 mM Tris pH 7.5, 200 mM NaCl, 1 mM TCEP, 0.01% Brij35, and 4% DMSO. […] In brief, before the immobilization, the sensor chip surface was conditioned by injecting a mixture of (3:1 v/v) 8 M guanidine hydrochloride and 1 M NaOH at a flow rate of 5 μL/min for 2 min for two times. Then, running buffer was injected at a 30 μl/min flow rate for 1 min 3 times. Next, the Biotin CAPture reagent was injected at a flow rate of 2 μl/min for 5 min. Then, biotinylated KLHDC2 was only injected onto the active channel (channel 2).
Sample preparation was carried out precisely the same as SJ46411. All experiments were performed using a multi-cycle analysis method with a 30 μl/min flow rate, 120 S association, and 240 s dissociation time. All data were reference subtracted and corrected for DMSO mismatch. The sensorgrams were analyzed using Biacore insight evaluation software, and KD was determined using the 1:1 steady-state affinity fitting. Finally, all the analyzed data was replotted using GraphPad Prizm 10 software.

KLHDC2^SBD [3] = target: T1, KLHDC2^SBD; assay: ITC, binary binding of small molecule to KLHDC2^SBD
[4] = ITC Kd, cell: ligand, syringe: KLHDC2^SBD
[5] = cell: ligand, syringe: KLHDC2^SBD

Compound: O=C(O)CNC(=O)Cc1csc(-c2ccccc2F)n1 [SJ6145]
% Inhibition, normalized TR-FRET dose response (KLHDC2^SBD [1]; Log Concentration (uM 2.8348)): 0%
% Inhibition, normalized TR-FRET dose response (KLHDC2^SBD [1]; Log Concentration (uM 3.13583)): 5.022%
% Inhibition, normalized TR-FRET dose response (KLHDC2^SBD [1]; Log Concentration (uM 4.64098)): 41.3917%
% Inhibition, normalized TR-FRET dose response (KLHDC2^SBD [1]; Log Concentration (uM 4.94201)): 60.6887%
% Inhibition, normalized TR-FRET dose response (KLHDC2^SBD [1]; Log Concentration (uM 5.24304)): 71.5686%
% Inhibition, normalized TR-FRET dose response (KLHDC2^SBD [1]; Log Concentration (uM 5.54407)): 79.1487%
IC50 (KLHDC2^SBD [1]): 42 µM
SPR Rmax (KLHDC2^SBD [2]): 8.25 +/- 0.01
SPR dissociation constant kd (KLHDC2^SBD [2]): 4.19 s⁻¹
Kd (KLHDC2^SBD [2]): 16.9 µM

Compound: COCOc1ccc(-c2nc(CC(=O)NCC(=O)O)cs2)c(Cl)c1 [SJ10278]
% Inhibition, normalized TR-FRET dose response (KLHDC2^SBD [1]; Log Concentration 2, Rep1): 8.293%
% Inhibition, normalized TR-FRET dose response (KLHDC2^SBD [1]; Log Concentration 2, Rep2): 0%
% Inhibition, normalized TR-FRET dose response (KLHDC2^SBD [1]; Log Concentration 2, Rep3): 0%
% Inhibition, normalized TR-FRET dose response (KLHDC2^SBD [1]; Log Concentration 3.39794, Rep1): 11.5657%
% Inhibition, normalized TR-FRET dose response (KLHDC2^SBD [1]; Log Concentration 3.39794, Rep2): 0%
% Inhibition, normalized TR-FRET dose response (KLHDC2^SBD [1]; Log Concentration 3.39794, Rep3): 5.531%
% Inhibition, normalized TR-FRET dose response (KLHDC2^SBD [1]; Log Concentration 3.87506, Rep1): 26.5428%
% Inhibition, normalized TR-FRET dose response (KLHDC2^SBD [1]; Log Concentration 3.87506, Rep2): 8.417%
% Inhibition, normalized TR-FRET dose response (KLHDC2^SBD [1]; Log Concentration 3.87506, Rep3): 8.069%
% Inhibition, normalized TR-FRET dose response (KLHDC2^SBD [1]; Log Concentration 4.35218, Rep1): 43.4059%
% Inhibition, normalized TR-FRET dose response (KLHDC2^SBD [1]; Log Concentration 4.35218, Rep2): 37.2745%
% Inhibition, normalized TR-FRET dose response (KLHDC2^SBD [1]; Log Concentration 4.35218, Rep3): 43.973%
% Inhibition, normalized TR-FRET dose response (KLHDC2^SBD [1]; Log Concentration 4.81291, Rep1): 67.7021%
% Inhibition, normalized TR-FRET dose response (KLHDC2^SBD [1]; Log Concentration 4.81291, Rep2): 64.6478%
% Inhibition, normalized TR-FRET dose response (KLHDC2^SBD [1]; Log Concentration 4.81291, Rep3): 77.6282%
IC50 (KLHDC2^SBD [1]): 24.1 µM
SPR Rmax (KLHDC2^SBD [2]): 11.33 +/- 0.02
SPR dissociation constant kd (KLHDC2^SBD [2]): 2.03 s⁻¹
Kd (KLHDC2^SBD [2]): 8.8 µM and 8.79 µM

Kd (KLHDC2^SBD [3]; [4]): ~0.26 µM and 0.22 µM
Kd (KLHDC2^SBD [3]; Kd, ITC, syringe KLHDC2, cell compound, Rep1, Rep2): 0.202 µM and 0.238 µM
ITC -TΔS (KLHDC2^SBD [3]; [5]): -1.52 +/- 0.04 kcal/mol-1
ITC stoichiometry of binding N (KLHDC2^SBD [3]; [5]): 0.9
ITC ΔG (KLHDC2^SBD [3]; [5]): -8.81 +/- 0.07 kcal/mol-1
ITC ΔH (KLHDC2^SBD [3]; [5]): -7.30 +/- 0.10 kcal/mol-1
% Inhibition, normalized TR-FRET dose response (KLHDC2^SBD [1]; Log Concentration 2.39794, Rep1-Rep3): 6.354% and 5.4752% and 4.71%
% Inhibition, normalized TR-FRET dose response (KLHDC2^SBD [1]; Log Concentration 2.64098, Rep1-Rep3): 7.948% and 6.2789% and 8.198%
% Inhibition, normalized TR-FRET dose response (KLHDC2^SBD [1]; Log Concentration 3.273, Rep1-Rep3): 31.9514% and 32.2878% and 31.935%
% Inhibition, normalized TR-FRET dose response (KLHDC2^SBD [1]; Log Concentration 3.87506, Rep1-Rep3): 66.95% and 63.4771% and 63.8138%
% Inhibition, normalized TR-FRET dose response (KLHDC2^SBD [1]; Log Concentration 4.39794, Rep1-Rep3): 94.0253% and 93.427% and 93.3896%
% Inhibition, normalized TR-FRET dose response (KLHDC2^SBD [1]; Log Concentration 4.69897, Rep1-Rep3): 96.203% and 95.4411% and 96.0366%
% Inhibition, normalized TR-FRET dose response (KLHDC2^SBD [1]; Log Concentration 4.94201, Rep1-Rep3): 96.4266% and 96.3416% and 96.2278%
IC50 (KLHDC2^SBD [1]): 3.9 µM
SPR Response (KLHDC2^SBD [2]; analyte 0.146484 μM): 4.647 RU
SPR Response (KLHDC2^SBD [2]; analyte 0.292969 μM): 7.784 RU
SPR Response (KLHDC2^SBD [2]; analyte 0.585938 μM): 11.5982 RU
SPR Response (KLHDC2^SBD [2]; analyte 2.34375 μM): 17.8875 RU
SPR Response (KLHDC2^SBD [2]; analyte 4.6875 μM): 19.5092 RU
SPR Response (KLHDC2^SBD [2]; analyte 9.375 μM): 20.5795 RU
SPR Rmax (KLHDC2^SBD [2]): 24.50 +/- 0.30
Kd (KLHDC2^SBD [2]): 0.5 µM and 0.526 µM
Compound: O=C(O)CNC(=O)Cc1csc(-c2ccc3ccccc3c2)n1 [SJ46411]

Compound: Cc1sc2c(c1C)C(c1ccc(Cl)cc1)=N[C@@H](CC(=O)N1CCN(CCOc3cccc4ccc(-c5nc(CC(=O)NCC(=O)O)cs5)cc34)CC1)c1nnc(C)n1-2 [SJ46421]
Kd (KLHDC2^SBD [3]; [4]): 0.304 ± 0.039 µM
Kd (KLHDC2^SBD [3]; Kd, Rep1/Rep2, ITC source data Fig4a, syringe KLHDC2, cell PROTAC alone): 0.338 µM and 0.269 µM
ITC -TΔS (KLHDC2^SBD [3]; [5]): -1.03 +/- 0.22 kcal/mol-1
ITC stoichiometry of binding N (KLHDC2^SBD [3]; [5]): 0.8
ITC ΔG (KLHDC2^SBD [3]; [5]): -9.1 +/- 0.02 kcal/mol-1
ITC ΔH (KLHDC2^SBD [3]; [5]): -8.07 +/- 0.22 kcal/mol-1

From article PMC11470957, “Principles of paralog-specific targeted protein degradation engaging the C-degron E3 KLHDC2” (Nature Communications, 2024)
